Eight substances from patent US5599789A, “Method for the treatment of tumours and sarcomas” (Amrad Corporation Limited, priority 1991, dated 1997) can be followed below.

Common to all, as to assay type: cell-based, human
Experiment [1] has as its system Ewing's Sarcoma cell line Cu-1. Put plainly: Colony formation in semi-solid agar cultures, Cu-1 cells. Particulars: Cu-1, 10,000 cells, day 18. The protocol: (§1) Tumour cells obtained from biopsy and bone marrow specimens from patients with Ewing's Sarcoma were used in these studies. Approval for this project has been obtained from the Ethics Committee of the Royal Children's Hospital.
(§2) Single cell suspensions of tumour cells were obtained by mechanical disruption with an 18G or 21G needle or by pipetting, followed by incubation with dispase II (Boehringer) at a concentration of 1.2 units per ml for 10 minutes at 37° C. Prior to the addition to agar-medium the cells were vortexed gently to prevent clumping.
(§3) Clonal cell lines were grown in Iscove's Modified Dulbecco's Medium (IMDM) supplemented with 10% v/v foetal calf serum (FCS; CSL Limited, Melbourne, Australia) and were passaged either weekly or twice weekly. The characteristics of the Ewing Sarcoma cell lines used herein as described below:
(§4) Cell lines derived from the above primary cell lines (Al and Cu) are identified by an Arabic numeral (e.g. Al-1, Al-5, Al-8 or Cu-1).
(§5) The tumour cells were immobilised in 0.3% w/v agar containing Iscove's Modified Dulbecco's Medium (IMDM) and 10% v/v FCS. […] Cultures were scored for the presence of colonies (>40 cells) or clusters (<40 cells). The number of cells plated per culture ranged from 500 to 10,000 per ml. Colonies were counted on an Olympus dissecting microscope.
(§6) IL-1, IL-3, IL-4, IL-6, M-CSF, G-CSF, GM-CSF, Stem Cell Factor (SCF), TNFα, TGFα, TGFβ, EGF, aFGF, bFGF, NGF, IGF I, IGF II, PDGF and IFN-γ.
(§7) The recombinant human leukaemia inhibitory factor (LIF) was obtained from AMRAD Corporation Limited, Melbourne, Australia.

Experiment [2] deals with Ewing's Sarcoma cell line Al (uncloned). The experiment can be described thus: Colony formation in semi-solid agar cultures, Al (uncloned) cells. Conditions: Al(uncloned), 5,000 cells, day 18. The protocol: as §1, §2, §3, §5, §6, §7
The test system of experiment [3] is Ewing's Sarcoma cell line Al-5. Put plainly: Colony formation in semi-solid agar cultures, Al-5 cells. Particulars: Al-5, 1,000 cells, day 18. The protocol:
as §1, §2, §3, §4, §5, §6, §7

In experiment [4] the test system is Ewing's Sarcoma cell line Al-8. Put plainly: Colony formation in semi-solid agar cultures, Al-8 cells. Particulars: Al-8, 1,000 cells, day 18. The procedure: as §1, §2, §3, §4, §5, §6, §7
The subject of experiment [5] is Ewing's Sarcoma cell line Al-1. Put plainly: Colony formation in semi-solid agar cultures, Al-1 cells. Particulars: day 18. The procedure: as §1, §2, §3, §4, §5, §6, §7
The next experiment relates to Ewing's Sarcoma cells. Put plainly: Colony formation in agar cultures, a number of different Ewing's cell lines (summary statements). Particulars: doses of Tables 1-3; TNF-α dose far above the physiological dose.
Excerpt: as §5

The mark [6] stands for this setting: stimulus 100 ng, mean of duplicate colony counts.
Where [7] appears, read: Al-1, 1,000 cells, stimulus 100 ng, mean of duplicate colony counts.
Setting [8] is: Al-1, 10,000 cells, stimulus 100 ng, mean of duplicate colony counts.

For the substance “IL-4: commercially available growth factor, used at 1:3000”, the Colonies/Cultures is 325 in experiment [1] (stimulus 1:3000); 165 in experiment [2] (stimulus 1:3000); 38 in experiment [3] (stimulus 1:3000); 82 in experiment [4] (stimulus 1:3000); 47 in experiment [5] (Al-1, 1,000 cells, stimulus 1:3000); 720 in experiment [5] (Al-1, 10,000 cells, stimulus 1:3000).
On to “NGF: commercially available growth factor”, for which the Colonies/Cultures in experiment [1] (setting [6]) is recorded as 360; in experiment [2] (setting [6]), 165; in experiment [3] (setting [6]) it was 32; in experiment [4] (setting [6]), 52; in experiment [5] (setting [7]), 49; in experiment [5] (setting [8]) it was 810.
In the case of PDGF, the Colonies/Cultures in experiment [1] (stimulus 30 ng) turned out to be 390; in experiment [2] (stimulus 30 ng), 352; in experiment [3] (stimulus 30 ng), 39; in experiment [4] (stimulus 30 ng), 72; in experiment [5] (Al-1, 1,000 cells, stimulus 30 ng), 47.
For the substance “SCF: commercially available growth factor, Stem Cell Factor”, the Colonies/Cultures in experiment [1] (setting [6]) came to 440; in experiment [2] (setting [6]) it was 225; in experiment [3] (setting [6]), 42; in experiment [4] (setting [6]), 77; in experiment [5] (setting [7]) it was 51; in experiment [5] (setting [8]), 950.
As for “TGFa: commercially available growth factor”, the Colonies/Cultures in experiment [1] (stimulus 20 ng) was 390; in experiment [2] (stimulus 20 ng), 190; in experiment [4] (stimulus 20 ng) it was 87.
In the case of TGFb, the Colonies/Cultures in experiment [1] (stimulus 5 ng) is reported as 385; in experiment [2] (stimulus 5 ng) it was 175; in experiment [3] (stimulus 5 ng) it was 41; in experiment [4] (stimulus 5 ng), 45; in experiment [5] (Al-1, 10,000 cells, stimulus 5 ng), 540.
Regarding TNFa, the Colonies/Cultures in experiment [1] (stimulus 5 ug) was 190; in experiment [2] (stimulus 5 ug), 39; in experiment [3] (stimulus 5 ug), 0; in experiment [4] (stimulus 5 ug), 1; in experiment [5] (Al-1, 10,000 cells, stimulus 5 ug), 2. The “Effect on colony counts of the other factors” value with Ewing's Sarcoma cells is “with the exception of TNF-α showed any effect on colony counts”.
Regarding “aFGF: commercially available growth factor”, the Colonies/Cultures in experiment [1] (setting [6]) was 520; in experiment [2] (setting [6]), 260; in experiment [3] (setting [6]) it was 58; in experiment [4] (setting [6]), 128; in experiment [5] (setting [7]), 57; in experiment [5] (setting [8]), 975.
